Test results as given in US6368788B1 (priority 1987, dated 2002).
Marks after values point to notes of the source that are not given here.

Key:
influenza = assay: Influenza treatments (Protocol E); set-up: species or system human; conditions: in vivo
Procedure: One hundred fifty-six patients (156) with influenza were treated with 100 μg L-Glu-L-Trp im or 1 μg/kg intranasally on each of 5-10 consecutive days. A control group constituted with entry of 82 influenza patients who remained untreated.

Frostbite = assay: Frostbite; set-up: species or system human; conditions: in vivo
Procedure: Seventeen patients with frostbite of the extremities were treated with L-Glu-L-Trp either im or intranasally. Eleven patients constituted a control group.

[1] = system: lymphocytes of thymus, spleen, lymph nodes, peripheral blood; assay: Recovery of immune cells in irradiated guinea pigs (1 Gy); assay type: in vivo; conditions: for E-RFC / E-RFC (% Normal) / EA-RFC / EA-RFC (% Normal) / EAC-RFC / EAC-RFC (% Normal) / Lymphocytes / Lymphocytes (% Normal) / Lymphocyte Blastogenesis with Con-A / Neutrophil Cationic Protein Levels: 0.01 mg/kg daily 5 days
From the text: X-irradiation an accepted experimental animal model for depressing cellular immune mechanisms operative in anti-bacterial, anti-viral, and anti-parasitic immunity. The levels of lymphocytes in thymus, spleen, and lymph node are decreased following sub-lethal radiation exposure, and the effects of L-Glu-L-Trp on recovery of immune function following radiation exposure were investigated in this model.
142 guinea pigs were exposed to 1 Gy of X-irradiation and then treated with L-Glu-L-Trp at a dose of 0.01 mg/kg daily for 5 days starting two days after the irradiation. Immunologic indices were determined at 5, 10, and 20 days by preparing samples of immune cells from thymus, spleen, lymph nodes, and peripheral blood. Cell preparations were analyzed to determine the content of lymphocytes, E-RFC (i.e., T-lymphocytes), EA-RFC (“activated” T-lymphocytes), and EAC-RFC (i.e., B-lymphocytes). (The materials and methods used in these analyses are presented following EXAMPLE 38, below. The results obtained in these experiments are summarized in TABLE 55. […]
Neutrophil cationic proteins were determined according to the method of V. E. Pigarevsky and Yu. A. Mazing (1981). Briefly, blood smears were air dried, stained for 20 minutes in a buffered methanol.-fast green solution, washed in distilled water, and stained for an additional 30 minutes with Azure 11. The percentage of cells containing green-colored granules was determined by microscopically counting a minimum of 100-200 of the cells in the smears, and cation protein concentration was recorded as the mean cytotoxic coefficient (MCC) according to a modified formula of Astold & Berg.

E. coli = assay: Survival after acute peritonitis with LD100 dose of E. coli; assay type: in vivo, mice
[2] = lymph node, 5 days post irradiation (1 Gy)
[3] = lymph node, 10 days post irradiation (1 Gy)
[4] = lymph node, 20 days post irradiation (1 Gy)
[5] = peripheral blood, 5 days post-irradiation
[6] = peripheral blood, 10 days post-irradiation
[7] = peripheral blood, 20 days post-irradiation
[8] = splenic, 5 days post irradiation (1 Gy)
[9] = splenic, 10 days post irradiation (1 Gy)
[10] = splenic, 20 days post irradiation (1 Gy)
[11] = thymic, 5 days post irradiation (1 Gy)
[12] = thymic, 10 days post irradiation (1 Gy)
[13] = thymic, 20 days post irradiation (1 Gy)

L-Glu-L-Trp
Clinical outcome (influenza): accelerated alleviation of symptoms associated with influenza infection | Clinical outcome (Frostbite): Rapid healing and restoration of tissue integrity | Splenic B-lymphocytes (EAC-RFC), % of normal ([1]; day 5): 82% | Thymic T-lymphocyte counts, % of normal ([1]; day 5): 67% | Thymic lymphocytes, % of normal ([1]; day 5): 82% | Splenic B-lymphocytes (EAC-RFC), % of normal ([1]; day 10): 100% | Thymic T-lymphocyte counts, % of normal ([1]; day 10): 51% | Thymic lymphocytes, % of normal ([1]; day 10): 56% | Lymph node T-lymphocyte counts ([1]; guinea pig, in vivo): significantly increased T-lymphocyte counts in lymph nodes on days 5, 10 and 20 | E-RFC [1, 2]: 40 +/− 4** × 10^9/L | E-RFC (% Normal) [1, 2]: (122%) | EA-RFC [1, 2]: 20 +/− 3** × 10^9/L | EA-RFC (% Normal) [1, 2]: (111%) | EAC-RFC [1, 2]: 25 +/− 2** × 10^9/L | EAC-RFC (% Normal) [1, 2]: (45%) | Lymphocytes [1, 2]: 183 +/− 21* × 10^9/L | Lymphocytes (% Normal) [1, 2]: (73%) | E-RFC [1, 3]: 29 +/− 3** × 10^9/L | E-RFC (% Normal) [1, 3]: (88%) | EA-RFC [1, 3]: 17 +/− 2** × 10^9/L | EA-RFC (% Normal) [1, 3]: (94%) | EAC-RFC [1, 3]: 12 +/− 1* × 10^9/L | EAC-RFC (% Normal) [1, 3]: (21%) | Lymphocytes [1, 3]: 75 +/− 13* × 10^9/L | Lymphocytes (% Normal) [1, 3]: (30%) | E-RFC [1, 4]: 30 +/− 2** × 10^9/L | E-RFC (% Normal) [1, 4]: (91%) | EA-RFC [1, 4]: 25 +/− 4** × 10^9/L | EA-RFC (% Normal) [1, 4]: (139%) | EAC-RFC [1, 4]: 9 +/− 1* × 10^9/L | EAC-RFC (% Normal) [1, 4]: (16%) | Lymphocytes [1, 4]: 242 +/− 31** × 10^9/L | Lymphocytes (% Normal) [1, 4]: (96%) | Con-A responsiveness and neutrophil cationic proteins ([1]; peripheral blood): statistically significant decrease in Con-A responsiveness and increased levels of neutrophil cationic proteins | Lymphocyte Blastogenesis with Con-A [1, 5]: 44 +/− 4** % | Neutrophil Cationic Protein Levels [1, 5]: 1.42 +/− 0.15* | Lymphocyte Blastogenesis with Con-A [1, 6]: 67 +/− 5** % | Neutrophil Cationic Protein Levels [1, 6]: 1.54 +/− 0.09** | Lymphocyte Blastogenesis with Con-A [1, 7]: 49 +/− 2** % | Neutrophil Cationic Protein Levels [1, 7]: 1.63 +/− 0.11** | E-RFC [1, 8]: 48 +/− 4** × 10^9/L | E-RFC (% Normal) [1, 8]: (120%) | EA-RFC [1, 8]: 22 +/− 4** × 10^9/L | EA-RFC (% Normal) [1, 8]: (85%) | EAC-RFC [1, 8]: 60 +/− 5** × 10^9/L | EAC-RFC (% Normal) [1, 8]: (82%) | Lymphocytes [1, 8]: 378 +/− 36** × 10^9/L | Lymphocytes (% Normal) [1, 8]: (92%) | E-RFC [1, 9]: 29 +/− 3* × 10^9/L | E-RFC (% Normal) [1, 9]: (73%) | EA-RFC [1, 9]: 15 +/− 2* × 10^9/L | EA-RFC (% Normal) [1, 9]: (58%) | EAC-RFC [1, 9]: 73 +/− 5** × 10^9/L | EAC-RFC (% Normal) [1, 9]: (100%) | Lymphocytes [1, 9]: 147 +/− 18** × 10^9/L | Lymphocytes (% Normal) [1, 9]: (36%) | E-RFC [1, 10]: 45 +/− 4** × 10^9/L | E-RFC (% Normal) [1, 10]: (113%) | EA-RFC [1, 10]: 29 +/− 4** × 10^9/L | EA-RFC (% Normal) [1, 10]: (112%) | EAC-RFC [1, 10]: 82 +/− 9 × 10^9/L | EAC-RFC (% Normal) [1, 10]: (112%) | Lymphocytes [1, 10]: 260 +/− 32** × 10^9/L | Lymphocytes (% Normal) [1, 10]: (64%) | E-RFC [1, 11]: 252 +/− 26** × 10^9/L | E-RFC (% Normal) [1, 11]: (67%) | EA-RFC [1, 11]: 150 +/− 16** × 10^9/L | EA-RFC (% Normal) [1, 11]: (52%) | EAC-RFC [1, 11]: 4 +/− 1** × 10^9/L | EAC-RFC (% Normal) [1, 11]: (80%) | Lymphocytes [1, 11]: 395 +/− 27** × 10^9/L | Lymphocytes (% Normal) [1, 11]: (82%) | E-RFC [1, 12]: 195 +/− 21** × 10^9/L | E-RFC (% Normal) [1, 12]: (51%) | EA-RFC [1, 12]: 143 +/− 16** × 10^9/L | EA-RFC (% Normal) [1, 12]: (49%) | EAC-RFC [1, 12]: 3 +/− 0.4* × 10^9/L | EAC-RFC (% Normal) [1, 12]: (60%) | Lymphocytes [1, 12]: 276 +/− 26** × 10^9/L | Lymphocytes (% Normal) [1, 12]: (57%) | E-RFC [1, 13]: 343 +/− 30** × 10^9/L | E-RFC (% Normal) [1, 13]: (91%) | EA-RFC [1, 13]: 243 +/− 28** × 10^9/L | EA-RFC (% Normal) [1, 13]: (84%) | EAC-RFC [1, 13]: 4 +/− 0.4 × 10^9/L | EAC-RFC (% Normal) [1, 13]: (80%) | Lymphocytes [1, 13]: 423 +/− 40** × 10^9/L | Lymphocytes (% Normal) [1, 13]: (88%) | Percentage Survivors (E. coli; 24 hours after injection, Glu-Trp dose 10 μg/kg (alone or + Ampicillin 1 MED)): 83.3* % | Percentage Survivors (E. coli; 24 hours after injection, Glu-Trp dose 100 μg/kg (alone or + Ampicillin 1 MED)): 77.8*† % | Percentage Survivors (E. coli; 24 hours after injection, Glu-Trp dose 1000 μg/kg (alone or + Ampicillin 1 MED)): 83.3*† % | Percentage Survivors (E. coli; 48 hours after injection, Glu-Trp dose 10 μg/kg (alone or + Ampicillin 1 MED)): 11.1% | Percentage Survivors (E. coli; 48 hours after injection, Glu-Trp dose 100 μg/kg (alone or + Ampicillin 1 MED)): 38.9* % | Percentage Survivors (E. coli; 48 hours after injection, Glu-Trp dose 1000 μg/kg (alone or + Ampicillin 1 MED)): 44.4* % | Percentage Survivors (E. coli; 72 hours after injection, Glu-Trp dose 10 μg/kg (alone or + Ampicillin 1 MED)): 11.1% | Percentage Survivors (E. coli; 72 hours after injection, Glu-Trp dose 100 μg/kg (alone or + Ampicillin 1 MED)): 38.9* % | Percentage Survivors (E. coli; 72 hours after injection, Glu-Trp dose 1000 μg/kg (alone or + Ampicillin 1 MED)): 44.4* %
